Data from patent US8735409B2, “Quinazoline derivatives” (priority 2009, dated 2014).

Experiment: Stability in Human Liver Microsomes
Format: in vitro ADME
Conditions: pooled human liver microsomes 0.5 mg/mL protein, 1 mM NADPH, 37° C., N=1; for half-life: both sexes
Method: The liver microsomes stability of compounds of Examples 1-4 was compared with that of TOVOK, and the compound of Example 5 with CUDC-101.
The metabolic stability of compounds of the invention was tested using pooled liver microsomes prepared from mixed-gender humans, with 1 mM NADPH. The samples were analyzed using an LTQ-Orbitrap XL mass spectrometer. HRMS was used to determine the peak area response ratio (peak area corresponding to test compound or control divided by that of an analytical internal standard) without running a standard curve. HRMS scan was performed in an appropriate m/z range in order to detect all plausible metabolites
The assay was run with a single incubation (N=1). Incubated test compounds at 37° C. in buffer containing 0.5 mg/mL microsomal protein. Initiated the reaction by adding cofactors, sampling at 0, 10, 20, 30, and 60 minutes, Incubated positive control (5 μM testosterone) in parallel and sampling at 0, 10, and 30 minutes.
The control compound testosterone was run in parallel to verify the enzymatic activity of the microsomes. After the final time point, fluorimetry was used to confirm the addition of NADPH to the reaction mixture. T1/2 of control met the internal acceptance criteria.
• Liquid Chromatography • Column: Thermo BDS Hypersil C18 30×2.0 mm, 3 μm, with guard column • M.P. Buffer: 25 mM ammonium formate buffer, pH 3.5 • Aqueous Reservoir (A): 90% water, 10% buffer • Organic Reservoir (B): 90% acetonitrile, 10% buffer • Flow Rate: 300 μL/minute • Gradient Program:
• Total Run Time: 3.5 minutes • Autosampler: 10 μL Injection Volume • Autosampler Wash: water/methanol/2-propanol: 1/1/1; with 0.2% formic acid • Mass Spectrometer • Instrument: PE SCIEX API 3000 • Interface: Turbo Ionspray • Mode: Multiple Reaction Monitoring • Method: 3.5 minute duration

Row | SMILES | half-life [h] | Percentage remaining 0 min [%] | Percentage remaining 10 min [%] | Percentage remaining 20 min [%] | Percentage remaining 30 min [%] | Percentage remaining 60 min [%] | Half life [h]
1 | C#Cc1cccc(Nc2ncnc3cc(OC)c(OCCCCCCC(=O)NO)cc23)c1 [CUDC-101, reference compound] | 0.333 | 100 | 74 | 48 | 35 | 14 | –
2 | [2H]C([2H])([2H])Oc1cc2ncnc(Nc3cccc(C#C)c3)c2cc1OCCCCCCC(=O)NO [Example 5, 7-(4-(3-ethynylphenylamino)-7-(D3-methoxy)quinazolin-6-yloxy)-N-hydroxyheptanamide] | 0.467 | 100 | 85 | 68 | 48 | 25 | –
3 | [2H]C1(Oc2cc3ncnc(Nc4ccc(F)c(Cl)c4)c3cc2NC(=O)/C=C/CN(C)C)CCOC1 (stereo not drawn) [Example 3, (E)-N-(4-(3-chloro-4-fluorophenylamino)-7-((3-D)-tetrahydrofuran-3-yloxy)quinazolin-6-yl)-4-(dimethylamino)but-2-enamide] | – | 100 | 97 | 89 | 84 | 73 | >1
4 | [2H]C([2H])([2H])N(C/C=C/C(=O)Nc1cc2c(Nc3ccc(F)c(Cl)c3)ncnc2cc1O[C@H]1CCOC1)C([2H])([2H])[2H] [Example 1, (S,E)-N-(4-(3-chloro-4-fluorophenylamino)-7-(tetrahydrofuran-3-yloxy)quinazolin-6-yl)-4-(D6-dimethylamino)but-2-enamide] | – | 100 | 97 | 90 | 85 | 75 | >1
5 | [2H]C([2H])([2H])N(C/C=C/C(=O)Nc1cc2c(Nc3cccc(C#C)c3)ncnc2cc1O[C@H]1CCOC1)C([2H])([2H])[2H] [Example 2, (S,E)-4-(D6-dimethylamino)-N-(4-(3-ethynylphenylamino)-7-(tetrahydrofuran-3-yloxy)quinazolin-6-yl)but-2-enamide] | – | 100 | 95 | 87 | 80 | 67 | >1
6 | [2H]C1(Oc2cc3ncnc(Nc4cccc(C#C)c4)c3cc2NC(=O)/C=C/CN(C)C)CCOC1 [Example 4, (E)-4-(dimethylamino)-N-(4-(3-ethynylphenylamino)-7-(3-D-tetrahydrofuran-3-yloxy)quinazolin-6-yl)but-2-enamide] | – | 100 | 94 | 87 | 79 | 70 | >1
7 | CN(C)C/C=C/C(=O)Nc1cc2c(Nc3ccc(F)c(Cl)c3)ncnc2cc1O[C@H]1CCOC1 [TOVOK, reference compound] | > 1 | 100 | 95 | 85 | 75 | 60 | –
